Source: patent US9260382B2, “Methods of reducing virulence in bacteria” (priority 2010, dated 2016)

Key:
hrpS mRNA = experiment: qRT-PCR relative mRNA level of hrpS; format: cell-based, Dickeya dadantii 3937; settings: 0.1 mM in MM
Method: Bacterial strains were grown in MM. Total RNA from the bacterial cells was isolated by using the TRI reagent method (Sigma, Mo.) and treated with Turbo DNA-free DNase kits (Ambion, Tex.) as described (Peng et al., 2006). An iScript cDNA Synthesis Kit (Bio-Rad, CA) was used to synthesize cDNA from 0.5 μg of treated total RNA. The Real Master Mix (Eppendorf, Westbury, N.Y.) was used for qRT-PCR reaction to quantify the cDNA level of target genes in different samples. The rplU was used as the endogenous control for data analysis. qRT-PCR data were analyzed using Relative Expression Software Tool as described (Pfaffl, M. W., Horgan, G. W., and Dempfle, L. (2002) Relative expression software tool (REST) for group-wise comparison and statistical analysis of relative expression results in real-time PCR. Nucleic Acids Res 30:e36.).

[1] = tested on: Pseudomonas syringae pv. tomato DC3000 (HR elicitation); experiment: Hypersensitive response (HR) assay in tobacco leaves; format: in vivo; settings: Nicotiana tabacum cv. Xanthi, 18 hours post-infiltration
Method: Bacterial cells from overnight cultures grown in KB broth were resuspended in sterile dH2O. Cell suspensions were mixed with chemicals and allowed to sit for 30 minutes before plant inoculation. Nicotiana tabacum cv. Xanthi plants were used for HR assays. Tobacco leaves were pressure infiltrated by use of a needless syringe (Fu et al. 2006) with 1×10^8 cells/ml and 25 μM, 50 μM, 100 μM, 250 μM, or 500 μM TCA. Plants were photographed and assessed for macroscopic tissue collapse indicative of HR 18 h post-inoculation.
In DC3000, mutations in genes which encode components of the T3SS result in the inability to elicit HR in non-hosts (Collmer et al. 2000). Since TCA represses expression of hrpA (a major component of the T3SS) in vitro, the ability of TCA to suppress HR in planta was examined. DC3000 (OD600=0.1) with 25 μM, 50 μM, 100 μM, 250 μM, or 500 μM of TCA in DMSO was injected into leaves of tobacco (Nicotiana tabacum cv. Xanthi). Concentrations of DMSO which correspond to similar amounts of TCA were also injected into the tobacco plants as negative controls. Tobacco leaves were assessed for HR symptoms 18 hours post-infiltration. No visible signs of tissue damage or HR were observed when DMSO or TCA was separately infiltrated into the tobacco leaves (data not shown). […] This effect is most likely due to lack of a functional T3SS.

HrpW protein = experiment: HrpW immunoblot analysis; format: cell-based, Pseudomonas syringae pv. tomato DC3000; settings: HIM supplemented with 250 μM
Method: The HrpW protein level was determined by immunoblot using anti-HrpW antibody provided by Dr. Alan Collmer (Cornell University, Ithaca, N.Y.). Sample preparation was performed as previously described with modifications (Yuan and He 1996). Wild-type DC3000 was grown overnight in King's B medium at 28° C. The culture was washed with hrp-inducing medium (HIM) and resuspended in 40 ml of the same medium to an optical density (OD) at 600 nm of 0.1. To determine the effect of TCA on the HrpW protein level, TCA dissolved in DMSO was added to the culture at the final concentration of 250 μM and the culture was grown with moderate shaking at 28° C. DMSO was added to a separate culture as a negative control. After 9 h, the cells were collected by centrifugation at 4,000×g for 10 min and resuspended in 1 ml of phosphate buffered saline (PBS; 137 mM NaCl, 2.7 mM KCl, 4.3 mM Na2HPO4, and 1.47 mM KH2PO4 [pH 7.4]). […]

[2] = tested on: Pseudomonas syringae pv. tomato DC3000; experiment: Virulence assay in tomato plants (bacterial speck); format: in vivo; settings: five days post-inoculation; for bacterial speck lesions on tomato plants, in words: DC3000 with 250 μM
Method: Virulence assays were performed in 4-5 week old tomato plants. Bacterial cell suspensions were adjusted to 6×10^5 cells/ml in dH2O with 0.02% Silwet L-77 (Lehle Seeds, Round Rock, Tex.). Lycopersicon esculentum cv. Moneymaker plants were dip-inoculated into negative control solution (dH2O with 0.02% Silwet L-77 and DMSO), positive control solution (DC3000 in dH2O with 0.02% Silwet L-77 and DMSO), or with a chemical treatment solution (DC3000 in dH2O with 0.02% Silwet L-77 and 250 μM TCA). Leaves were air-dried and plants were covered with a plastic dome and returned to the growth chamber. Plants were scored for disease symptoms using a modified scoring system (Kozik and Nowakowska 2010) five days post-inoculation. Lesions of bacterial speck on tomato were counted and the plants were scored using the following DSI scale: 0=no lesions per plant, 1=1-10 lesions, 2=11-20 lesions, 3=21-40 lesions, 4=>40 lesions.
The effects of TCA on virulence in tomato plants were examined. Lycopersicon esculentum cv. Moneymaker plants were dip-inoculated with a negative control treatment (dH2O with 0.02% Silwet L-77 and DMSO), a positive control treatment (DC3000 in dH2O with 0.02% Silwet L-77 and DMSO), or with a chemical treatment (DC3000 in dH2O with 0.02% Silwet L-77 and 250 μM TCA) as described in the methods. The lesions of bacterial speck on leaves per plant were counted and plants were classified with a disease severity index (DSI) as described in the methods. […] Plants treated with DC3000 were all scored with a DSI of four (FIG. 36B).

| Compound | hrpS mRNA compared with MM alone, in words (hrpS mRNA) | elicitation of HR by DC3000 in tobacco leaves, in words ([1]; infiltrated with 100 μM) | elicitation of HR by DC3000 in tobacco leaves, in words ([1]; infiltrated with 250 μM) | HrpW protein in culture supernatants, immunoblot, in words (HrpW protein) | HrpW protein in whole cell lysates, immunoblot, in words (HrpW protein) | disease severity index (DSI) ([2]; tomato Lycopersicon esculentum cv. Moneymaker dip-inoculated with DC3000 and 250 μM) | bacterial speck lesions on tomato plants, in words [2] | bacterial speck lesions on tomato plants, in words ([2]; listed as TCA) |
| --- | --- | --- | --- | --- | --- | --- | --- | --- |
| O=C(O)/C=C/c1ccccc1O [Compound 006, Ortho-coumaric acid] | No significant difference | – | – | – | – | – | – | – |
| O=C(O)/C=C/c1ccccc1 [Compound 001, trans-cinnamic acid] | – | unable to completely block HR | completely suppressed | absent from the culture supernatants | undetectable in the whole cell lysates | zero | No lesions of bacterial speck were observed | no bacterial speck lesions were observed |
